#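 Assay format: 96-well plates, 48-hour exposure. The concentration for 50% growth inhibition is given as GI50. TGI marks complete inhibition of growth.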
# How the values were obtained:
# Assay in all cases: inhibition of tumour cell growth, NCI panel, 48 h
# 786-0 renal = test system: 786-0 renal
# A549 NSCLC = test system: A549 NSCLC
# ACHN renal = test system: ACHN renal
# CAKI-1 renal = test system: CAKI-1 renal
# CCRF-CEM leukemia = test system: CCRF-CEM leukemia
# COLO 205 colon = test system: COLO 205 colon
# HL-60(TB) leukemia = test system: HL-60(TB) leukemia
# HOP-62 NSCLC = test system: HOP-62 NSCLC
# IGROV1 ovarian = test system: IGROV1 ovarian
# K-562 leukemia = test system: K-562 leukemia
# M14 melanoma = test system: M14 melanoma
# MALME-3M melanoma = test system: MALME-3M melanoma
# MCF7 breast = test system: MCF7 breast
# MDA-MB-435 = test system: MDA-MB-435
# MOLT-4 leukemia = test system: MOLT-4 leukemia
# NCI-H23 lung = test system: NCI-H23 lung
# NCI-H460 lung = test system: NCI-H460 lung
# NCI/ADR-RES ovarian = test system: NCI/ADR-RES ovarian
# OVCAR-4 ovarian = test system: OVCAR-4 ovarian
# OVCAR-5 ovarian = test system: OVCAR-5 ovarian
# RPMI-8226 leukemia = test system: RPMI-8226 leukemia
# RXF 393 renal = test system: RXF 393 renal
# SF-268 CNS = test system: SF-268 CNS
# SK-MEL-2 melanoma = test system: SK-MEL-2 melanoma
# SK-MEL-28 melanoma = test system: SK-MEL-28 melanoma
# SK-MEL-5 melanoma = test system: SK-MEL-5 melanoma
# SK-OV-3 ovarian = test system: SK-OV-3 ovarian
# SNB-75 CNS = test system: SNB-75 CNS
# SR leukemia = test system: SR leukemia
# SW-620 colon = test system: SW-620 colon
# T-47D breast = test system: T-47D breast
# U251 CNS = test system: U251 CNS
# UACC-62 melanoma = test system: UACC-62 melanoma
# A498 renal = test system: A498 renal
# BT-549 breast = test system: BT-549 breast
# DU-145 prostate = test system: DU-145 prostate
# EKVX NSCLC = test system: EKVX NSCLC
# HCC-2998 colon = test system: HCC-2998 colon
# HCT-116 colon = test system: HCT-116 colon
# HCT-15 colon = test system: HCT-15 colon
# HOP-92 NSCLC = test system: HOP-92 NSCLC
# HS 578T breast = test system: HS 578T breast
# HT29 colon = test system: HT29 colon
# KM12 colon = test system: KM12 colon
# NCI-H522 lung = test system: NCI-H522 lung
# OVCAR-3 ovarian = test system: OVCAR-3 ovarian
# OVCAR-8 ovarian = test system: OVCAR-8 ovarian
# PC-3 prostate = test system: PC-3 prostate
# SF-295 CNS = test system: SF-295 CNS
# SF-539 CNS = test system: SF-539 CNS
# SN12C renal = test system: SN12C renal
# SNB-19 CNS = test system: SNB-19 CNS
# TK-10 renal = test system: TK-10 renal
# UACC-257 melanoma = test system: UACC-257 melanoma
# UO-31 renal = test system: UO-31 renal
# LOX IMVI melanoma = test system: LOX IMVI melanoma
# MDA-MB-231 breast = test system: MDA-MB-231 breast
# NCI-H226 lung = test system: NCI-H226 lung
compound,measurement,setting,value
CC1=C2C(=O)c3ccccc3C2=C(C)S(=O)(=O)O1,TGI,786-0 renal,> 10 µM
same,TGI,A549 NSCLC,> 10 µM
same,TGI,ACHN renal,> 10 µM
same,TGI,CAKI-1 renal,> 10 µM
same,TGI,CCRF-CEM leukemia,> 10 µM
same,TGI,COLO 205 colon,> 10 µM
same,TGI,HL-60(TB) leukemia,> 10 µM
same,TGI,HOP-62 NSCLC,> 10 µM
same,TGI,IGROV1 ovarian,> 10 µM
same,TGI,K-562 leukemia,> 10 µM
same,TGI,M14 melanoma,> 10 µM
same,TGI,MALME-3M melanoma,> 10 µM
same,TGI,MCF7 breast,> 10 µM
same,TGI,MDA-MB-435,> 10 µM
same,TGI,MOLT-4 leukemia,> 10 µM
same,TGI,NCI-H23 lung,> 10 µM
same,TGI,NCI-H460 lung,> 10 µM
same,TGI,NCI/ADR-RES ovarian,> 10 µM
same,TGI,OVCAR-4 ovarian,> 10 µM
same,TGI,OVCAR-5 ovarian,> 10 µM
same,TGI,RPMI-8226 leukemia,> 10 µM
same,TGI,RXF 393 renal,> 10 µM
same,TGI,SF-268 CNS,> 10 µM
same,TGI,SK-MEL-2 melanoma,> 10 µM
same,TGI,SK-MEL-28 melanoma,> 10 µM
same,TGI,SK-MEL-5 melanoma,> 10 µM
same,TGI,SK-OV-3 ovarian,> 10 µM
same,TGI,SNB-75 CNS,> 10 µM
same,TGI,SR leukemia,> 10 µM
same,TGI,SW-620 colon,> 10 µM
same,TGI,T-47D breast,> 10 µM
same,TGI,U251 CNS,> 10 µM
same,TGI,UACC-62 melanoma,> 10 µM
c1ccc2c(c1)NC(C1OC3CCCN3C1C1Nc3ccccc3S1)S2 (stereo not drawn),TGI,786-0 renal,> 100 µM
same,TGI,A498 renal,> 100 µM
same,TGI,A549 NSCLC,> 100 µM
same,TGI,ACHN renal,> 100 µM
same,TGI,BT-549 breast,> 100 µM
same,TGI,CAKI-1 renal,> 100 µM
same,TGI,CCRF-CEM leukemia,> 100 µM
same,TGI,COLO 205 colon,> 100 µM
same,TGI,DU-145 prostate,> 100 µM
same,TGI,EKVX NSCLC,> 100 µM
same,TGI,HCC-2998 colon,> 100 µM
same,TGI,HCT-116 colon,> 100 µM
same,TGI,HCT-15 colon,> 100 µM
same,TGI,HL-60(TB) leukemia,46.7 µM
same,TGI,HOP-62 NSCLC,> 100 µM
same,TGI,HOP-92 NSCLC,> 100 µM
same,TGI,HS 578T breast,> 100 µM
same,TGI,HT29 colon,> 100 µM
same,TGI,IGROV1 ovarian,> 100 µM
same,TGI,K-562 leukemia,> 100 µM
same,TGI,KM12 colon,> 100 µM
same,TGI,M14 melanoma,> 100 µM
same,TGI,MALME-3M melanoma,> 100 µM
same,TGI,MCF7 breast,> 100 µM
same,TGI,MDA-MB-435,> 100 µM
same,TGI,MOLT-4 leukemia,> 100 µM
same,TGI,NCI-H23 lung,> 100 µM
same,TGI,NCI-H460 lung,> 100 µM
same,TGI,NCI-H522 lung,> 100 µM
same,TGI,OVCAR-3 ovarian,> 100 µM
same,TGI,OVCAR-4 ovarian,> 100 µM
same,TGI,OVCAR-5 ovarian,> 100 µM
same,TGI,OVCAR-8 ovarian,> 100 µM
same,TGI,PC-3 prostate,> 100 µM
same,TGI,RPMI-8226 leukemia,76.3 µM
same,TGI,RXF 393 renal,97 µM
same,TGI,SF-268 CNS,> 100 µM
same,TGI,SF-295 CNS,> 100 µM
same,TGI,SF-539 CNS,> 100 µM
same,TGI,SK-MEL-28 melanoma,> 100 µM
same,TGI,SK-MEL-5 melanoma,> 100 µM
same,TGI,SK-OV-3 ovarian,> 100 µM
same,TGI,SN12C renal,> 100 µM
same,TGI,SNB-19 CNS,> 100 µM
same,TGI,SNB-75 CNS,> 100 µM
same,TGI,SR leukemia,> 100 µM
same,TGI,SW-620 colon,> 100 µM
same,TGI,TK-10 renal,> 100 µM
same,TGI,U251 CNS,> 100 µM
same,TGI,UACC-257 melanoma,> 100 µM
same,TGI,UACC-62 melanoma,> 100 µM
same,TGI,UO-31 renal,> 100 µM
O=C(CNc1ccccc1Cl)Nn1c(-c2ccccc2)nc2ccccc2c1=O,TGI,786-0 renal,40.2 µM
same,TGI,A498 renal,> 100 µM
same,TGI,A549 NSCLC,> 100 µM
same,TGI,ACHN renal,> 100 µM
same,TGI,BT-549 breast,25.5 µM
same,TGI,CCRF-CEM leukemia,70.5 µM
same,TGI,COLO 205 colon,34.6 µM
same,TGI,DU-145 prostate,> 100 µM
same,TGI,EKVX NSCLC,36.8 µM
same,TGI,HCC-2998 colon,39.8 µM
same,TGI,HCT-116 colon,> 100 µM
same,TGI,HL-60(TB) leukemia,65.7 µM
same,TGI,HOP-62 NSCLC,72.9 µM
same,TGI,HOP-92 NSCLC,29.4 µM
same,TGI,HS 578T breast,89.5 µM
same,TGI,HT29 colon,> 10 µM
same,TGI,IGROV1 ovarian,75.4 µM
same,TGI,K-562 leukemia,97.2 µM
same,TGI,KM12 colon,87.1 µM
same,TGI,LOX IMVI melanoma,29.5 µM
same,TGI,M14 melanoma,> 10 µM
same,TGI,MCF7 breast,31.4 µM
same,TGI,MDA-MB-231 breast,> 10 µM
same,TGI,MDA-MB-435,37.4 µM
same,TGI,MOLT-4 leukemia,57.7 µM
same,TGI,NCI-H226 lung,81.1 µM
same,TGI,NCI-H23 lung,40.8 µM
same,TGI,NCI-H460 lung,> 100 µM
same,TGI,NCI-H522 lung,> 10 µM
same,TGI,OVCAR-3 ovarian,48.3 µM
same,TGI,OVCAR-4 ovarian,93.4 µM
same,TGI,OVCAR-5 ovarian,> 10 µM
same,TGI,OVCAR-8 ovarian,> 100 µM
same,TGI,PC-3 prostate,99 µM
same,TGI,RPMI-8226 leukemia,> 100 µM
same,TGI,RXF 393 renal,36.7 µM
same,TGI,SF-268 CNS,> 100 µM
same,TGI,SF-295 CNS,91.1 µM
same,TGI,SF-539 CNS,43.6 µM
same,TGI,SK-MEL-28 melanoma,55.9 µM
same,TGI,SK-MEL-5 melanoma,21.8 µM
same,TGI,SK-OV-3 ovarian,> 100 µM
same,TGI,SN12C renal,> 100 µM
same,TGI,SNB-19 CNS,> 10 µM
same,TGI,SNB-75 CNS,63 µM
same,TGI,SR leukemia,97.6 µM
same,TGI,SW-620 colon,39.7 µM
same,TGI,TK-10 renal,> 100 µM
same,TGI,U251 CNS,33 µM
same,TGI,UACC-257 melanoma,> 100 µM
same,TGI,UACC-62 melanoma,> 10 µM
same,TGI,UO-31 renal,> 100 µM
CC(C)c1ccc(C(=O)Nc2sc3c(CN(C)C)c(O)ccc3c2C(N)=O)cc1,GI50,CCRF-CEM leukemia,2.2 µM
same,TGI,CCRF-CEM leukemia,9.37 µM
same,GI50,EKVX NSCLC,6.28 µM
same,TGI,EKVX NSCLC,> 100 µM
same,GI50,HL-60(TB) leukemia,1.74 µM
same,TGI,HL-60(TB) leukemia,4.38 µM
same,GI50,HOP-92 NSCLC,3.48 µM
same,TGI,HOP-92 NSCLC,> 100 µM
same,GI50,IGROV1 ovarian,2.02 µM
same,TGI,IGROV1 ovarian,> 100 µM
same,GI50,K-562 leukemia,0.409 µM
same,TGI,K-562 leukemia,4.55 µM
same,GI50,KM12 colon,0.728 µM
same,TGI,KM12 colon,> 100 µM
same,GI50,MDA-MB-231 breast,3.27 µM
same,TGI,MDA-MB-231 breast,> 100 µM
same,GI50,MOLT-4 leukemia,2.32 µM
same,TGI,MOLT-4 leukemia,8.51 µM
same,GI50,NCI/ADR-RES ovarian,2.64 µM
same,TGI,NCI/ADR-RES ovarian,> 100 µM
same,GI50,OVCAR-5 ovarian,2.66 µM
same,TGI,OVCAR-5 ovarian,> 100 µM
same,GI50,OVCAR-8 ovarian,3.07 µM
same,TGI,OVCAR-8 ovarian,> 100 µM
same,GI50,PC-3 prostate,2.55 µM
same,TGI,PC-3 prostate,> 100 µM
same,GI50,SK-OV-3 ovarian,6.72 µM
same,TGI,SK-OV-3 ovarian,> 100 µM
same,GI50,SN12C renal,2.2 µM
same,TGI,SN12C renal,> 100 µM
same,GI50,SNB-19 CNS,3.23 µM
same,TGI,SNB-19 CNS,> 100 µM
same,GI50,SNB-75 CNS,2.09 µM
same,TGI,SNB-75 CNS,> 100 µM
same,GI50,SR leukemia,2.89 µM
same,TGI,SR leukemia,8.79 µM

# From PubChem BioAssay (NCI)
